The values below come from patent publication US20260166128A1, “HUMAN AMYLIN ANALOG, AND DERIVATIVE THEREOF AND USE THEREOF” (priority 2022, published 2026).

One data set concerns the target T1, human amylin receptor (Homo sapiens, UniProt O60896+P30988).
T1 construct: host or cells: CHO-K1/Ga15/AMY3 cells, further stably transfected with a CRE-luciferase plasmid
T1 sequence (P30988 25-474): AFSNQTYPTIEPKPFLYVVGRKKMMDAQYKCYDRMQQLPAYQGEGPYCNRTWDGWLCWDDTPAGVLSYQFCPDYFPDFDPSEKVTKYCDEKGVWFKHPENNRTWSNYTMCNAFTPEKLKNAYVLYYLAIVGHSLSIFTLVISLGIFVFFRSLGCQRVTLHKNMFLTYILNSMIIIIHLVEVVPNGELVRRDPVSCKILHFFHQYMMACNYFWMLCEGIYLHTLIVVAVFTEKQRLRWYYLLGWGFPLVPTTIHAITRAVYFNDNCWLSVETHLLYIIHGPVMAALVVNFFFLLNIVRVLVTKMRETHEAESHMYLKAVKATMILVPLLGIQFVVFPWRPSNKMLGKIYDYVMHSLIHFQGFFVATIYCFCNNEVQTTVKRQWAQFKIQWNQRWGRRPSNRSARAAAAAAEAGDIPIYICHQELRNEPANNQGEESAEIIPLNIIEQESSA
T1 sequence (O60896 24-148 partner): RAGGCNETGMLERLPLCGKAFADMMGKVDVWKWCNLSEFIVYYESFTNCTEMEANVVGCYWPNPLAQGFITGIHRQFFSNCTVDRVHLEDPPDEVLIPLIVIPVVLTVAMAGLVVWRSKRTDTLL
The data set can be described thus: Luciferase assay of amylin derivatives in amylin receptor/CRE-luc CHO cell line. The following applies: CHO-K1/Ga15/AMY3 CRE-luc cells, 24 hours incubation, F12 medium containing 10% FBS; read-out: EC50. The class given is cell-based.

Data set [1] is described as follows: Freeze-thaw stability of derivatives (freeze-thaw yield by liquid chromatography). It counts as physicochemical. To be noted: for Dissolution property: appearance after dissolution at 0.2 mg/ml in 20 mM phosphate buffer solution (PB) (pH 7.0); for Freeze storage property: appearance after overnight storage at −20° C. and thawing to room temperature, 0.2 mg/ml in 20 mM PB (pH 7.0). The gist of the method:
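Freeze-thaw yield is the ratio of peptide concentration after versus before one overnight −20° C freeze and room-temperature thaw, both quantified by RP-HPLC of supernatant after centrifugation. Samples were 0.2 mg/ml freeze-dried derivative in 20 mM PB, pH 7.0.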

Molecules are shown by their SMILES. Numbered stars: 1 amine (or outer) side, 2 acyl side, 3 side chain; on linkers, the order of the positions; unused ones are H or OH. Bridge positions count the residues as written; N and C are the ends. Square brackets hold non-standard residues; d marks the D form. Side chains are listed from the residue outwards. Peptide text beside a SMILES is read from it. * marks the point of attachment. C20 diacid = O=C(O)CCCCCCCCCCCCCCCCCCC(=O)*; γGlu = O=C(O)[C@H](CCC(=O)[*:2])N[*:1]; Hyp = O=C(O)[C@@H]1C[C@@H](O)CN1; AEEA = NCCOCCOCC(=O)O

Protocol for human amylin receptor: The experiment was intended to detect the activity or efficacy of the amylin derivatives on a human amylin receptor in vitro by luciferase assay.
50 μL of growth medium (F12 medium containing 10% FBS) was added into each well of a white 96-well plate, and the stably transfected amylin/CRE-lue CHO cells were inoculated into the white 96-well plate at a density of about 20,000 cells/well for activity determination.

In the case of `CC[C@H](C)[C@H](NC(=O)[C@@H]1CCCN1C(=O)CNC(=O)[C@H](CC(C)C)NC(=O)[C@H](CCCCNC(=O)COCCOCCNC(=O)COCCOCCNC(=O)CC[C@H](NC(=O)CCCCCCCCCCCCCCCCCCC(=O)O)C(=O)O)NC(=O)[C@H](CC(N)=O)NC(=O)[C@H](CO)NC(=O)[C@H](CO)NC(=O)[C@H](Cc1c[nH]cn1)NC(=O)[C@H](CCCNC(=N)N)NC(=O)[C@H](CC(C)C)NC(=O)[C@H](Cc1ccccc1)NC(=O)[C@H](CCC(=O)O)NC(=O)[C@H](C)NC(=O)[C@H](CC(C)C)NC(=O)[C@H](CCCNC(=N)N)NC(=O)[C@H](CCC(N)=O)NC(=O)[C@@H](NC(=O)[C@H](C)NC(=O)[C@@H]1CSSC[C@H](NC(=O)[C@@H](N)CCCNC(=N)N)C(=O)N[C@@H](CC(N)=O)C(=O)N[C@@H]([C@@H](C)O)C(=O)N[C@@H](C)C(=O)N[C@@H]([C@@H](C)O)C(=O)N1)[C@@H](C)O)C(=O)N[C@@H](CC(C)C)C(=O)N1CCC[C@H]1C(=O)N1CCC[C@H]1C(=O)N[C@H](C(=O)N[C@@H](CC(N)=O)C(=O)N[C@H](C(=O)NCC(=O)N[C@@H](CO)C(=O)N[C@@H](CC(N)=O)C(=O)N[C@H](C(=O)N1CCC[C@H]1C(N)=O)[C@@H](C)O)C(C)C)[C@@H](C)O` [PD002] (H-RCNTATCATQRLAEFLRHSSNK([AEEA-AEEA-γGlu-C20 diacid])LGPILPPTNVGSNTP-NH2; disulfide 2-7 (inferred); N-terminus assumed), the 50% effective concentration (EC50) on human amylin receptor amounted to 0.119 nM. Moreover, in data set [1], the Dissolution property entry is “Clear” and the Freeze storage property entry is given as “Clear”.
As to `CC[C@H](C)[C@H](NC(=O)[C@@H]1CCCN1C(=O)[C@H](CCCCNC(=O)CC[C@H](NC(=O)CCCCCCCCCCCCCCCCCCC(=O)O)C(=O)O)NC(=O)[C@H](CC(C)C)NC(=O)[C@H](CC(N)=O)NC(=O)[C@H](CC(N)=O)NC(=O)[C@H](CO)NC(=O)[C@H](CO)NC(=O)[C@H](Cc1c[nH]cn1)NC(=O)[C@H](CCCNC(=N)N)NC(=O)[C@H](CC(C)C)NC(=O)[C@H](Cc1ccccc1)NC(=O)[C@H](CC(=O)O)NC(=O)[C@H](C)NC(=O)[C@H](CC(C)C)NC(=O)[C@H](CCCNC(=N)N)NC(=O)[C@H](CCC(N)=O)NC(=O)[C@@H](NC(=O)[C@H](C)NC(=O)[C@@H]1CSSC[C@H](NC(=O)[C@@H](N)CCCNC(=N)N)C(=O)N[C@@H](CC(N)=O)C(=O)N[C@@H]([C@@H](C)O)C(=O)N[C@@H](C)C(=O)N[C@@H]([C@@H](C)O)C(=O)N1)[C@@H](C)O)C(=O)N[C@@H](CC(C)C)C(=O)N1CCC[C@H]1C(=O)N1CCC[C@H]1C(=O)N[C@H](C(=O)N[C@@H](CC(N)=O)C(=O)N[C@H](C(=O)NCC(=O)N[C@@H](CO)C(=O)N[C@@H](CC(N)=O)C(=O)N[C@H](C(=O)N1C[C@H](O)C[C@H]1C(N)=O)[C@@H](C)O)C(C)C)[C@@H](C)O` [PD052] (H-RCNTATCATQRLADFLRHSSNNLK([γGlu-C20 diacid])PILPPTNVGSNT[Hyp]-NH2; disulfide 2-7 (inferred); N-terminus assumed), the EC50 at human amylin receptor is 0.03 nM. Further, in data set [1], the Dissolution property result is on record as “Clear” and the Freeze storage property entry was “Clear”. The Freeze storage yield in data set [1] (concentration of polypeptide after freezing and thawing / concentration before, by liquid chromatography, −20° C. overnight) was found to be 96.53%.
